Legend:
[1] = system: E. coli BL21(DE3); assay: Carbapenem sensitivity (MIC) of E. coli BL21(DE3) with and without IMP-1 expression; type: cell-based; settings: for fold reduced sensitivity caused by basal (uninduced) IMP-1 expression: pET30a-IMP-1 in E. coli BL21(DE3)
Description: A laboratory strain of E.coli engineered to express IMP-1 was used to evaluate the ability of thiol derivatives to reverse metallo-β-lactamase-mediated carbapenem resistance in bacteria. Native IMP-1, which included the N-terminal periplasmic signal sequence, was PCR amplified from […] isolated from a carbapenem resistant P. aeruginosa clinical isolate, CL56673, and cloned into the pET30a vector. […] Various concentrations of IMP-1 inhibitor were added to the bacterial growth medium and their capacity to effect a four-fold or greater increase in sensitivity to the carbapenem was monitored.

[2] = system: E. coli BL21(DE3)/pET30a-IMP-1; type: cell-based; settings: thioester conc giving 4-fold increase in sensitivity to the Merck carbapenem (0.25x MIC), no visible growth after 20 hours at 35° C.
From the text: A laboratory strain of E.coli engineered to express IMP-1 was used to evaluate the ability of thiol derivatives to reverse metallo-β-lactamase-mediated carbapenem resistance in bacteria. Native IMP-1, which included the N-terminal periplasmic signal sequence, was PCR amplified from […] isolated from a carbapenem resistant P. aeruginosa clinical isolate, CL56673, and cloned into the pET30a vector.

| Molecule | fold reduced sensitivity caused by basal (uninduced) IMP-1 expression [1] | Effective conc for 4-fold reduction of MIC in E. coli [2] | also measured |
| --- | --- | --- | --- |
| C[C@@H](O)[C@H]1C(=O)N2C(C(=O)O)=C(SCCN=CN)C[C@H]12 [impenem] | 4 fold | – | – |
| C[C@@H](O)[C@H]1C(=O)N2C(C(=O)O)=C(S[C@@H]3CN[C@H](C(=O)N(C)C)C3)[C@H](C)[C@H]12 [meropenem] | 64 fold | – | – |
| CC(=O)SC(Cc1ccc2oc3ccccc3c2c1)C(=O)O (centres unmarked) [Example 78] | – | ≦0.1 μM | – |
| O=C(SC(Cc1ccc2oc3ccccc3c2c1)C(=O)O)c1ccccc1 (centres unmarked) [Example 79] | – | 0.2 µM | – |
| CC(=O)N[C@H](C)C(=O)S[C@H](Cc1ccc(-c2ccccc2)cc1)C(=O)O [Example 13] | – | 6.3 µM | – |
| (1S,5R,6S)-1-methyl-2-{7-[4-(aminocarbonylmethyl)-1,4-diazoniabicyclo(2.2.2)octan-1-yl]methyl-fluoren-9-on-3-yl}-6-(1R-hydroxyethyl)-carbapen-2-em-3-carboxylate chloride | 500 fold | – | minimum inhibitory concentration (MIC), without IMP-1 expression ([1]; E. coli BL21(DE3), before expression of IMP-1): 0.06 to 0.12 µg/mL; minimum inhibitory concentration (MIC), with IMP-1 expression ([1]; E. coli BL21(DE3)/pET30a-IMP-1, basal IMP-1 expression): 16 to 32 µg/mL |

Reference: patent US20020019543A1, “Thiol derivative, metallo-beta-lactamase inhibitors” (priority 2000, published 2002)
